Results: ChEMBL document CHEMBL5380808, “Design, Synthesis, and Biological Activity of Marinacarboline Analogues as STAT3 Pathway Inhibitors for Docetaxel-Resistant Triple-Negative Breast Cancer” (J Med Chem, 2023)
Calls of active or inactive are those of the source. The calls are words filed in the database; no cut-off is given here.

Tests used:
[1] = Antiproliferative activity against docetaxel-resistant human MDA-MB-231-DTR cells assessed as reduction in cell viability incubated for 72 hrs by sulforhodamine B assay; type: functional, cell-based; details: MDA-MB-231, 72 h
[2] = Antiproliferative activity against docetaxel-resistant human MDA-MB-231-DTR cells assessed as reduction in cell viability incubated for 72 hrs by MTT assay; type: functional, cell-based; details: MDA-MB-231, 72 h
[3] = Synergistic antiproliferative activity against docetaxel-resistant human MDA-MB-231-DTR cells assessed as combination index at 1 uM incubated for 72 hrs in presence of 8 uM of N-(2-(1H-Indol-3-yl)ethyl)-1-(4-bromobenzoyl)-9H-pyrido(3,4-b)indole-3-carboxamide by Chou-Talalay method; type: functional
MDA-MB-231 [4] = experiment: Antitumor activity against docetaxel-resistant human MDA-MB-231-DTR cells xenografted in BALB/c mouse assessed as reduction in tumor volume at 5 mg/kg, ip daily for 12 days in presence of N-(2-(1H-Indol-3-yl)ethyl)-1-(4-bromobenzoyl)-9H-pyrido(3,4-b)indole-3-carboxamide; type: functional, organism-based; details: time 12.0 day
MDA-MB-231 [5] = experiment: Antiproliferative activity against human MDA-MB-231 cells transfected with STAT3 plasmid to overexpress STAT3 assessed as effect on cell viability at 10 to 80 nM incubated for 72 hrs by MTT assay; type: functional, cell-based; details: dose 10-80 nM
MDA-MB-231 [6] = experiment: Antitumor activity against docetaxel-resistant human MDA-MB-231-DTR cells xenografted in BALB/c mouse assessed as tumor growth inhibition at 5 mg/kg, ip daily for 12 days; type: functional, organism-based; details: time 12.0 day
[7] = Synergistic antiproliferative activity against docetaxel-resistant human MDA-MB-231-DTR cells assessed as combination index at 1 uM incubated for 72 hrs in presence of 4 uM of N-(2-(1H-Indol-3-yl)ethyl)-1-(4-bromobenzoyl)-9H-pyrido(3,4-b)indole-3-carboxamide by Chou-Talalay method; type: functional
[8] = Synergistic antiproliferative activity against docetaxel-resistant human MDA-MB-231-DTR cells assessed as combination index at 4 uM incubated for 72 hrs in presence of 2 uM of N-(2-(1H-Indol-3-yl)ethyl)-1-(4-bromobenzoyl)-9H-pyrido(3,4-b)indole-3-carboxamide by Chou-Talalay method; type: functional
[9] = Synergistic antiproliferative activity against docetaxel-resistant human MDA-MB-231-DTR cells assessed as combination index at 2 uM incubated for 72 hrs in presence of 2 uM of N-(2-(1H-Indol-3-yl)ethyl)-1-(4-bromobenzoyl)-9H-pyrido(3,4-b)indole-3-carboxamide by Chou-Talalay method; type: functional
[10] = Synergistic antiproliferative activity against docetaxel-resistant human MDA-MB-231-DTR cells assessed as combination index at 4 uM incubated for 72 hrs in presence of 8 uM of N-(2-(1H-Indol-3-yl)ethyl)-1-(4-bromobenzoyl)-9H-pyrido(3,4-b)indole-3-carboxamide by Chou-Talalay method; type: functional
[11] = Fold resistance, ratio of IC50 for antiproliferative activity against docetaxel-resistant human MDA-MB-231-DTR cells to IC50 for antiproliferative activity against human MDA-MB-231 cells; type: functional
MDA-MB-231 [12] = experiment: Antiproliferative activity against human MDA-MB-231 cells assessed as reduction in cell viability incubated for 72 hrs by MTT assay; type: functional, cell-based; details: MDA-MB-231, 72 h
MDA-MB-231 [13] = experiment: Antitumor activity against docetaxel-resistant human MDA-MB-231-DTR cells xenografted in BALB/c mouse assessed as reduction in tumor weight at 5 mg/kg, ip daily for 12 days in presence of N-(2-(1H-Indol-3-yl)ethyl)-1-(4-bromobenzoyl)-9H-pyrido(3,4-b)indole-3-carboxamide; type: functional, organism-based; details: time 12.0 day
[14] = Synergistic antiproliferative activity against docetaxel-resistant human MDA-MB-231-DTR cells assessed as combination index at 1 uM incubated for 72 hrs in presence of 2 uM of N-(2-(1H-Indol-3-yl)ethyl)-1-(4-bromobenzoyl)-9H-pyrido(3,4-b)indole-3-carboxamide by Chou-Talalay method; type: functional
[15] = Synergistic antiproliferative activity against docetaxel-resistant human MDA-MB-231-DTR cells assessed as combination index at 2 uM incubated for 72 hrs in presence of 8 uM of N-(2-(1H-Indol-3-yl)ethyl)-1-(4-bromobenzoyl)-9H-pyrido(3,4-b)indole-3-carboxamide by Chou-Talalay method; type: functional
MDA-MB-231 [16] = experiment: Antiproliferative activity against SiRNA mediated STAT3 knockdown docetaxel-resistant human MDA-MB-231-DTR cells assessed as restoration of drug sensitivity by measuring cell viability at 0.5 to 4 uM incubated for 72 hrs by MTT assay; type: functional, cell-based; details: dose 0.5-4 µM
[17] = Synergistic antiproliferative activity against docetaxel-resistant human MDA-MB-231-DTR cells assessed as combination index at 2 uM incubated for 72 hrs in presence of 4 uM of N-(2-(1H-Indol-3-yl)ethyl)-1-(4-bromobenzoyl)-9H-pyrido(3,4-b)indole-3-carboxamide by Chou-Talalay method; type: functional
[18] = Synergistic antiproliferative activity against docetaxel-resistant human MDA-MB-231-DTR cells assessed as combination index at 4 uM incubated for 72 hrs in presence of 4 uM of N-(2-(1H-Indol-3-yl)ethyl)-1-(4-bromobenzoyl)-9H-pyrido(3,4-b)indole-3-carboxamide by Chou-Talalay method; type: functional

IC50 (MDA-MB-231 [12]): 0.02 µM
Structure (SMILES): CC(=O)O[C@@]12CO[C@@H]1C[C@H](O)[C@@]1(C)C(=O)[C@H](O)C3=C(C)[C@@H](OC(=O)[C@H](O)[C@@H](NC(=O)OC(C)(C)C)c4ccccc4)C[C@@](O)([C@@H](OC(=O)c4ccccc4)[C@H]21)C3(C)C [DOCETAXEL ANHYDROUS]
IC50 [1]: 1.98 µM
IC50 [2]: 4.68 µM
CI [3]: 0.66
Activity (MDA-MB-231 [4]): Active
Activity (MDA-MB-231 [5]): inactive
Activity (MDA-MB-231 [6]): inactive
CI [7]: 0.38
CI [8]: 0.32
CI [9]: 0.23
CI [10]: 0.32
Ratio IC50 [11]: 103.5
Activity (MDA-MB-231 [13]): Active
CI [14]: 0.26
CI [15]: 0.45
Activity (MDA-MB-231 [16]): Active
CI [17]: 0.53
CI [18]: 0.37
